# In US9045505B2, “Nitric oxide donors” (University of Otago, priority 2006, dated 2015):
# Legend:
# [1] = test system: Langendorff-perfused mouse hearts; assay: Cardiac ischemia-reperfusion injury in Langendorff-perfused mouse hearts (ex vivo)
# Description: FIG. 16 is a series of graphs showing the vasodilatory and tissue protective effects of MitoSNAP. (a) Dose-response curves for the effect of MitoSNAP and related compounds on blood vessel relaxation. The effects of intact or decomposed MitoSNAP and SNAP on pre-contracted rat thoracic aorta mounted in a myograph were determined Data represent means±sem. For MitoSNAP n=8 from experiments on two independent rat aorta preparations. For decomposed MitoSNAP and SNAP experiments the data (n=4) are from one aorta preparation. (b) EC50 for the effect of MitoSNAP and SNAP on blood vessel relaxation. The EC50 values were determined from experiments shown in (a) above. ***p<0.001 by Student's unpaired t-test. (c & d) MitoSNAP protects against I/R injury in Langendorff-perfused mouse hearts. Hearts from C57BL6 mice were Langendorff perfused and subjected to 25 min global normothermic ischemia followed by 1 h of reperfusion. MitoSNAP or MitoNAP (100 nM final), or vehicle carrier, was added via an infusion port above the aortic cannula during reperfusion. Hearts were then stained with 2,3,5-triphenyltetrazolium chloride (TTC) to visualize infarct. (c) Protection of heart function by MitoSNAP during I/R injury. Left ventricular contractile function was recorded throughout the I/R protocol.
# FIG. 18 is a graph showing the effect of pre-ischemic administration of MitoSNAP or MitoNAP on recovery of heart function (rate pressure product) from IR injury. Experiments were carried out exactly as described in FIGS. 16c & 16d, except that MitoSNO1 or MitoNAP were infused into the heart for 20 min, followed by a 2 min wash-out period, prior to the onset of ischemia. White symbols=vehicle control, black symbols=MitoSN01, gray symbols=MitoNAP. Data are means±sem, n≧6. […]
# There is considerable evidence pointing to mitochondrial damage during the reperfusion phase of cardiac ischemia-reperfusion (I/R) injury. […] Therefore we determined if MitoSNAP could decrease I/R injury in a mouse heart Langendorff model (FIGS. 16c & d). […]
# [2] = Reaction with GSH and half-life in the cytosol; format: physicochemical; details: cytosol (estimated) with 5 mM GSH; physiological GSH concentration of 5 mM
# Description: The uptake of alkylTPP molecules into mitochondria within cells is rapid, equilibrating within 5-10 min (Ross, M. F. et al. Rapid and extensive uptake and activation of hydrophobic triphenylphosphonium cations within cells. Biochem. J. 411, 633-645 (2008)), and the rate limiting step is passage across the plasma membrane with rapid subsequent uptake into mitochondria (Ross, M. F. et al. Rapid and extensive uptake and activation of hydrophobic triphenylphosphonium cations within cells. Biochem. J. 411, 633-645 (2008) and Smith, R. A., Kelso, G. F., James, A. M. & Murphy, M. P. Targeting coenzyme Q derivatives to mitochondria. Meth. Enzymol. 382, 45-67 (2004)). Consequently, once through the plasma membrane, MitoSNAP should remain in the cytosol for a very short time before uptake into mitochondria. The rate of reaction of GSH with SNAP is 5.4 M^−1.s^−1 (Hogg, N. The kinetics of S-transnitrosation-a reversible second-order reaction. Anal. Biochem. 272, 257-62 (1999)). While other pathways of MitoSNAP decay in the cytosol may also contribute, GSH is likely to be the major one and at a physiological GSH concentration of 5 mM the half-life for MitoSNAP in the cytosol should be ˜25 s, giving plenty of time for MitoSNAP uptake into mitochondria. […]
compound,measurement,setting,value
"CC(=O)NC(C(=O)NCCCCC[P+](c1ccccc1)(c1ccccc1)c1ccccc1)C(C)(C)SN=O.CS(=O)(=O)[O-] (stereo not shown) [MitoSNAP, [5-(2-acetylamino-3-methyl-3-nitrosothio-butyrylamino)-penty1]-triphenylphosphonium methanesulfonate]",infarct size,[1]; 100 nM during reperfusion,decrease in infarct size
same,recovery of heart function (rate pressure product),"[1]; 100 nM during reperfusion, 25 min ischemia, 1 h reperfusion",better recovery of heart function
same,protection against I/R injury,[1]; delivered before the I/R injury,small degree of protection
same,half-life,[2],~0.417 min
